# Measurements published in the supplement of paper PMC10307832.
# Experiments:
# Experiment in all cases: relative viability (nuclei count vs DMSO), 5 days (fraction); higher = more cells survive
# BGJ398 + Crizotinib = compound: CCN1CCN(c2ccc(Nc3cc(N(C)C(=O)Nc4c(Cl)c(OC)cc(OC)c4Cl)ncn3)cc2)CC1 [BGJ398] + C[C@@H](Oc1cc(-c2cnn(C3CCNCC3)c2)cnc1N)c1c(Cl)ccc(F)c1Cl [Crizotinib] (partner 1 µM)
# How it was run: (§1)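 Values are medians from duplicate plates. Each reflects relative viability, defined as the nuclei count of treated wells over that of vehicle wells. Lung cancer cell lines in 1536-well plates were pin-tool dosed one day after seeding with one drug alone or with a fixed anchor-drug dose plus five library-drug doses (not always all listed) in √10 steps, then fixed, stained and imaged at 4× after 5 days.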
# BGJ398 + Navitoclax = compound: CCN1CCN(c2ccc(Nc3cc(N(C)C(=O)Nc4c(Cl)c(OC)cc(OC)c4Cl)ncn3)cc2)CC1 [BGJ398] + CC1(C)CCC(c2ccc(Cl)cc2)=C(CN2CCN(c3ccc(C(=O)NS(=O)(=O)c4ccc(N[C@H](CCN5CCOCC5)CSc5ccccc5)c(S(=O)(=O)C(F)(F)F)c4)cc3)CC2)C1 [Navitoclax] (partner 0.5 µM)
# How it was run: as §1
# [1] = compound: C1=CC2=NC=CN=C2C=C1/C=C/3\C(=O)NC(=O)S3 + Cc1cc(Nc2cc(N3CCN(C)CC3)nc(Sc3ccc(NC(=O)C4CC4)cc3)n2)n[nH]1 [Tozasertib] (partner 0.1 µM)
# How it was run: as §1
# BGJ398 + Pemetrexed = compound: CCN1CCN(c2ccc(Nc3cc(N(C)C(=O)Nc4c(Cl)c(OC)cc(OC)c4Cl)ncn3)cc2)CC1 [BGJ398] + Nc1nc2[nH]cc(CCc3ccc(C(=O)N[C@@H](CCC(=O)O)C(=O)O)cc3)c2c(=O)[nH]1 [Pemetrexed] (partner 0.2 µM)
# How it was run: as §1
Cell Line,relative viability (BGJ398 + Crizotinib; first compound 0.01 µM),relative viability (BGJ398 + Crizotinib; first compound 0.03162 µM),relative viability (BGJ398 + Crizotinib; first compound 0.1 µM),relative viability (BGJ398 + Crizotinib; first compound 0.3162 µM),relative viability (BGJ398 + Crizotinib; first compound 1 µM),relative viability (BGJ398 + Navitoclax; first compound 0.01 µM),relative viability (BGJ398 + Navitoclax; first compound 0.03162 µM),relative viability (BGJ398 + Navitoclax; first compound 0.1 µM),relative viability (BGJ398 + Navitoclax; first compound 0.3162 µM),relative viability (BGJ398 + Navitoclax; first compound 1 µM),relative viability ([1]; first compound 0.02 µM),relative viability ([1]; first compound 0.06325 µM),relative viability ([1]; first compound 0.2 µM),relative viability ([1]; first compound 0.6325 µM),relative viability ([1]; first compound 2 µM),relative viability (BGJ398 + Pemetrexed; first compound 0.01 µM),relative viability (BGJ398 + Pemetrexed; first compound 0.03162 µM),relative viability (BGJ398 + Pemetrexed; first compound 0.1 µM),relative viability (BGJ398 + Pemetrexed; first compound 0.3162 µM),relative viability (BGJ398 + Pemetrexed; first compound 1 µM)
NCI-H1703,0.694,1.17,0.796,0.638,0.863,0.823,1.39,0.989,1.14,0.964,–,–,–,–,–,–,–,–,–,–
LCLC-103H,1.02,1.03,1.03,0.96,0.827,–,–,–,–,–,0.563,0.424,0.45,0.52,0.456,0.459,0.503,0.401,0.494,0.541
Calu-6,0.737,0.86,0.948,0.745,0.781,0.794,0.838,0.796,0.788,0.795,–,–,–,–,–,–,–,–,–,–
NCI-H358,0.631,0.779,0.533,0.574,0.722,–,–,–,–,–,0.1,0.11,0.0984,0.127,0.0886,0.173,0.167,0.199,0.17,0.188
NCI-H2342,–,–,–,–,–,–,–,–,–,–,0.438,0.561,0.688,0.465,0.469,0.742,0.775,0.801,0.773,0.755
EBC-1,0.198,0.201,0.17,0.199,0.197,0.467,0.526,0.444,0.447,0.396,–,–,–,–,–,–,–,–,–,–
NCI-H1299,0.94,0.864,0.951,0.969,0.97,1.06,1.06,1.03,1.03,1.06,–,–,–,–,–,–,–,–,–,–
NCI-H522,–,–,–,–,–,–,–,–,–,–,0.64,0.504,0.641,0.542,0.549,0.987,0.896,0.876,0.995,0.856
IA-LM,0.91,0.996,0.657,0.908,0.793,0.614,0.798,0.764,0.724,0.917,–,–,–,–,–,–,–,–,–,–
NCI-H727,0.809,0.853,0.795,0.857,0.711,0.487,0.485,0.337,0.547,0.453,0.676,0.703,0.736,0.569,0.545,–,–,–,–,–
NCI-H650,0.57,0.791,0.808,0.857,0.727,–,–,–,–,–,0.777,0.725,0.705,0.749,0.55,0.988,0.931,0.995,0.956,0.974
NCI-H661,–,0.94,0.926,0.983,0.916,–,–,–,–,–,0.389,0.368,0.352,0.335,0.374,0.912,0.877,0.961,0.977,0.912
NCI-H1793,–,–,–,–,–,0.417,–,0.391,0.251,0.326,0.392,0.273,0.38,0.324,0.281,0.942,0.526,0.809,0.569,0.454
